MIC data for 10 compounds are collected here from DBAASP.

≈ marks a conversion by molar mass, not a printed value. Where “and” joins values, the source holds several entries; their conditions need not be identical. Equal entries are not always repeated.

Some test systems named below: Escherichia coli UB1005; Acinetobacter baumannii; Escherichia coli; Klebsiella pneumoniae; Pseudomonas aeruginosa; Staphylococcus aureus.
Assay in all cases: ≥ marks a high value that may be exact or a test limit, other limits are often not marked, values filed in µg/mL are converted to µM
Assay [1] relates to Bacillus subtilis KCTC 3068.
Assay [2] relates to Escherichia coli KCTC 1682.
Assay [3] concerns Pseudomonas aeruginosa KCTC 1637.
Assay [4] deals with Salmonella typhimurium KCTC 1926.
Assay [5] has as its system Staphylococcus aureus KCTC 1621.
In assay [6] the test system is Staphylococcus epidermidis KCTC 1917.
The subject of assay [7] is Enterococcus faecalis ATCC 29212.
The test system of assay [8] is Escherichia coli ATCC 25922.
Assay [9] relates to Pseudomonas aeruginosa ATCC 27853.
For assay [10], the system named is Salmonella enterica subsp. enterica serovar Pullorum C79-13.
Assay [11] has as its system Salmonella enterica subsp. enterica serovar Typhimurium ATCC 14028.
Assay [12] concerns Salmonella enterica subsp. enterica serovar Typhimurium C77-31.
The test system of assay [13] is Staphylococcus aureus ATCC 29213.
Assay [14] relates to Staphylococcus epidermidis ATCC 12228.
Assay [15] has as its system Candida albicans ATCC 10231.
For assay [16], the system named is Staphylococcus aureus ATCC 43300.
In assay [17] the test system is Acinetobacter baumannii ATCC 19606.
The test system of assay [18] is Klebsiella pneumoniae ATCC 13883.
The test system of assay [19] is Staphylococcus aureus ATCC 25923.

As a reminder, the MIC is the smallest concentration in the dilution series that meets the test's criterion for growth inhibition. High values mean a need for much substance, low ones inhibition by little substance. Consider `CC(C)C[C@H](NC(=O)[C@H](C)NC(=O)[C@H](Cc1c[nH]c2ccccc12)NC(=O)[C@H](CCCCN)NC(=O)[C@H](CC(N)=O)NC(=O)[C@H](Cc1c[nH]c2ccccc12)NC(=O)[C@H](CCCCN)NC(=O)[C@H](CCCCN)NC(=O)[C@H](CCCN=C(N)N)NC(=O)[C@H](Cc1ccccc1)NC(=O)[C@H](CCC(=O)O)NC(=O)[C@H](CO)NC(=O)[C@H](C)NC(=O)[C@@H](NC(=O)[C@H](CC(=O)O)NC(=O)[C@H](CC(C)C)NC(=O)[C@H](CCCN=C(N)N)NC(=O)[C@H](C)N)C(C)C)C(=O)N[C@@H](CO)C(=O)N[C@@H](CCCN=C(N)N)C(N)=O` [ARLDVASEFRKKWNKWALSR], for which the MIC in assay [1] is 8 µM (≈ 19.7 µg/mL); in assay [2], 8 µM (≈ 19.7 µg/mL); in assay [3] it was no less than 32 µM; in assay [4], 16 µM (≈ 39.4 µg/mL); in [5], 16 µM (≈ 39.4 µg/mL); in assay [6], 8 µM (≈ 19.7 µg/mL).
Take `CC(C)C[C@H](NC(=O)[C@H](Cc1ccccc1)NC(=O)[C@@H]1CCCN1C(=O)[C@H](Cc1c[nH]c2ccccc12)NC(=O)[C@@H](N)Cc1c[nH]c2ccccc12)C(=O)N[C@@H](CCCN=C(N)N)C(=O)N[C@@H](CCCN=C(N)N)C(N)=O` [WWPFLRR]: the MIC in [7] is greater than 128 µM; in [8] it was 64 µM and 128 µM; against Escherichia coli UB1005, no less than 128 µM; in assay [9], 64 µM (≈ 67.8 µg/mL); in assay [10], no less than 64 µM; in assay [11] it was 32 µM (≈ 33.9 µg/mL). Also, the MIC in [12] is no less than 64 µM; in [13] it was 64 µM and 128 µM; in assay [14], 32 µM (≈ 33.9 µg/mL).
Regarding `CC[C@H](C)[C@H](N)C(=O)NCC(=O)N[C@@H](CCCCN)C(=O)N[C@@H](CC(C)C)C(=O)N[C@@H](Cc1ccccc1)C(=O)N[C@@H](CCCCN)C(=O)N[C@@H](CCCN=C(N)N)C(=O)N[C@H](C(=O)N[C@H](C(=O)N[C@@H](CCC(N)=O)C(=O)N[C@@H](CCCN=C(N)N)C(=O)N[C@H](C(=O)N[C@@H](CC(C)C)C(=O)N[C@@H](CCCCN)C(=O)N[C@@H](Cc1ccccc1)C(=O)N[C@@H](CC(C)C)C(=O)N[C@@H](CCCN=C(N)N)C(=O)N[C@@H](CC(N)=O)C(=O)N[C@@H](CC(C)C)C(=O)O)[C@@H](C)CC)C(C)C)[C@@H](C)CC` [IGKLFKRIVQRILKFLRNL], the MIC in [1] was found to be 2 µM (≈ 4.71 µg/mL); in assay [2] it was 8 µM (≈ 18.8 µg/mL); in assay [3] it was 8 µM (≈ 18.8 µg/mL); in [4], 4 µM (≈ 9.42 µg/mL); in assay [5], 8 µM (≈ 18.8 µg/mL); in assay [6], 8 µM (≈ 18.8 µg/mL).
With `CC(C)[C@H](NC(=O)CN)C(=O)N[C@@H](CO)C(=O)NCC(=O)N[C@@H](Cc1cnc[nH]1)C(=O)NCC(=O)N[C@@H](CCC(N)=O)C(=O)N[C@@H](Cc1cnc[nH]1)C(=O)NCC(=O)N[C@H](C(=O)N[C@@H](Cc1cnc[nH]1)C(=O)NCC(=O)O)C(C)C` [GVSGHGQHGVHG], the MIC in [15], in [7], in [8], in assay [9] and in [16] was greater than 113 µM in each case.
Regarding `CC[C@H](C)[C@H](NC(=O)[C@H](CCCN=C(N)N)NC(=O)[C@H](CCCCN)NC(=O)[C@H](CCCN=C(N)N)NC(=O)[C@@H](NC(=O)[C@H](CCCN=C(N)N)NC(=O)[C@@H](N)CCCCN)[C@@H](C)CC)C(=O)N[C@@H](CCCCN)C(=O)N[C@@H](CCCCN)C(=O)N[C@@H](Cc1c[nH]c2ccccc12)C(=O)N[C@@H](CCCCN)C(=O)N[C@@H](CCCN=C(N)N)C(N)=O` [KRIRKRIKKWKR], the MIC in assay [1] came to 4 µM (≈ 6.78 µg/mL); in assay [2], 2 µM (≈ 3.39 µg/mL); in assay [3] it was 2 µM (≈ 3.39 µg/mL); in assay [4] it was 2 µM (≈ 3.39 µg/mL); in assay [5], 4 µM (≈ 6.78 µg/mL); in [6], 2 µM (≈ 3.39 µg/mL).
Regarding `CC[C@H](C)[C@H](NC(=O)[C@H](CCCCN)NC(=O)[C@H](CCCCN)NC(=O)[C@H](CC(C)C)NC(=O)[C@@H](N)CCCCN)C(=O)N[C@H](C(=O)N[C@H](C(=O)N[C@H](C(=O)N[C@@H](CCCCN)C(=O)N[C@H](C(=O)N[C@@H](CCCCN)C(=O)N[C@@H](CCCCN)C(N)=O)C(C)C)[C@@H](C)CC)C(C)C)C(C)C` [KLKKIVVIKVKK], the MIC in assay [1] was found to be 8.78 µM (≈ 12.5 µg/mL); in [2], 8.78 µM (≈ 12.5 µg/mL); in assay [3] it was 17.6 µM (≈ 25 µg/mL); in assay [4], 2.2 µM (≈ 3.13 µg/mL); in [5] it was 8.78 µM (≈ 12.5 µg/mL); in [6] it was 2.2 µM (≈ 3.13 µg/mL).
With `CC[C@H](C)[C@H](NC(=O)[C@H](CCCCN)NC(=O)[C@H](Cc1c[nH]c2ccccc12)NC(=O)[C@H](CC(C)C)NC(=O)[C@@H](N)CCCCN)C(=O)N[C@H](C(=O)N[C@H](C(=O)N[C@H](C(=O)N[C@@H](CCCCN)C(=O)N[C@H](C(=O)N[C@@H](Cc1c[nH]c2ccccc12)C(=O)N[C@@H](CCCCN)C(N)=O)C(C)C)[C@@H](C)CC)C(C)C)C(C)C` [KLWKIVVIKVWK], the minimal inhibitory concentration (MIC) was no less than 32.5 µM in assay [1]; no less than 32.5 µM in [2]; 16.2 µM (≈ 25 µg/mL) in assay [3]; 16.2 µM (≈ 25 µg/mL) in assay [4]; 16.2 µM (≈ 25 µg/mL) in assay [5]; 16.2 µM (≈ 25 µg/mL) in assay [6].
Regarding `CC(C)C[C@H](NC(=O)CNC(=O)CNC(=O)CNC(=O)[C@H](Cc1c[nH]c2ccccc12)NC(=O)[C@H](CCCCN)NC(=O)[C@H](Cc1c[nH]c2ccccc12)NC(=O)[C@H](CCCCN)NC(=O)[C@H](Cc1c[nH]c2ccccc12)NC(=O)[C@H](CCCCN)NC(=O)CNC(=O)[C@H](CC(N)=O)NC(=O)[C@H](CCCCN)NC(=O)[C@H](Cc1c[nH]c2ccccc12)NC(=O)[C@H](CCCCN)NC(=O)[C@H](Cc1c[nH]c2ccccc12)NC(=O)[C@H](CCCCN)NC(=O)[C@@H](N)Cc1c[nH]c2ccccc12)C(=O)N[C@H](C(=O)N[C@H](C(=O)N[C@@H](CC(C)C)C(=O)N[C@H](C(=O)N[C@@H](Cc1ccccc1)C(=O)N[C@H](C(=O)O)C(C)C)C(C)C)[C@@H](C)O)C(C)C` [WKWKWKNGKWKWKWGGGLVTLVFV], the minimum inhibitory concentration (MIC) in assay [7] is 16 µM (≈ 48.3 µg/mL); in [8] it was 2 µM (≈ 6.04 µg/mL); in assay [10] it was 8 µM (≈ 24.1 µg/mL); in assay [12], no less than 128 µM; in assay [13] it was 8 µM (≈ 24.1 µg/mL); in assay [14] it was 32 µM (≈ 96.6 µg/mL).
Turning to `CC(C)C[C@H](NC(=O)[C@H](CC(C)C)NC(=O)[C@H](CCCN=C(N)N)NC(=O)[C@H](CCCN=C(N)N)NC(=O)[C@H](C)NC(=O)[C@H](Cc1c[nH]c2ccccc12)NC(=O)CNC(=O)[C@H](CCCN=C(N)N)NC(=O)[C@@H](N)CCCN=C(N)N)C(=O)N[C@@H](CCCN=C(N)N)C(=O)N[C@@H](C)C(=O)N[C@@H](Cc1ccccc1)C(=O)N[C@@H](C)C(=O)N[C@@H](Cc1ccccc1)C(=O)NCC(=O)N[C@@H](CCCN=C(N)N)C(=O)N[C@@H](CCCN=C(N)N)C(N)=O` [RRGWARRLLRAFAFGRR], the MIC in assay [17] is 2.7 µM (≈ 5.79 µg/mL); in assay [18], 30 µM (≈ 64.3 µg/mL); in assay [11], 2.9 µM (≈ 6.22 µg/mL); in [19], greater than 30 µM.
As for `CC[C@H](C)[C@H](NC(=O)[C@H](CCCCN)NC(=O)CNC(=O)[C@H](C)NC(=O)[C@H](CCCCN)NC(=O)CNC(=O)[C@H](C)NC(=O)[C@@H](NC(=O)[C@H](CCCCN)NC(=O)[C@H](C)NC(=O)[C@@H](NC(=O)[C@H](CCCCN)NC(=O)CNC(=O)[C@H](C)NC(=O)[C@H](CCCCN)NC(=O)CNC(=O)[C@H](C)NC(=O)[C@@H](NC(=O)[C@@H](N)CCCCN)[C@@H](C)CC)[C@@H](C)CC)[C@@H](C)CC)C(=O)N[C@@H](C)C(N)=O` [KIAGKAGKIAKIAGKAGKIA], the minimum inhibitory concentration (MIC) is greater than 64 µM in [17]; no less than 64 µM against Acinetobacter baumannii; greater than 64 µM in assay [8]; greater than 64 µM in the assay with Escherichia coli; no less than 64 µM in assay [18]; greater than 64 µM in the assay on Klebsiella pneumoniae. In addition, the MIC (in assay [9]; in the assay with Pseudomonas aeruginosa; in assay [19]; with Staphylococcus aureus) was greater than 64 µM throughout.
